Experimental data as given in BindingDB's records for doi:10.1111/cbdd.12744 (Southern Research Institute, 2016).

Biological target: T1, Kinesin-like protein KIF11 [15-368] (Homo sapiens, UniProt P52732)
T1 construct: 15-368
T1 sequence (P52732 whole entry): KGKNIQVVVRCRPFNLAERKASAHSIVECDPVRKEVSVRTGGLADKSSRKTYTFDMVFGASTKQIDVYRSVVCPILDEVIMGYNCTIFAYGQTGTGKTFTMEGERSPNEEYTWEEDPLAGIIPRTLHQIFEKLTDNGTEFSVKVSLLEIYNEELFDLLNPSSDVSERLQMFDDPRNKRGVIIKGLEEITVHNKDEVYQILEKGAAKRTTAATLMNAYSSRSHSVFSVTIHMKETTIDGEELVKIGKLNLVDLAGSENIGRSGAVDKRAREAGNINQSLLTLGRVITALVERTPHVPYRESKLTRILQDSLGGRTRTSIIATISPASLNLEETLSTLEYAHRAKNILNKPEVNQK
Test: ADP Hunter Plus Assay
Details: pH 7; 25 °C
Protocol: Compounds were first tested in triplicates at 100 uM; hit compounds were further tested with a 10-point twofold serial dilution to confirm their activity and determine their IC50 values. S-Trityl-L-cysteine (STLC), a selective Eg5 inhibitor(J. Biol. Chem. 2006, 281:17559-17569; Mol. Cancer Ther. 2004, 3:1079-1090), was used as the control compound. Specifically, 20 uL of 15 mM PIPES (pH 7.0) containing 1 mM MgCl2, 50 nM MT, 20 uM paclitaxel, 200 uM ATP, 5% DMSO, 60 nM Eg5 proteins, and 1:2 serial dilutions of each individual compound starting from 1000 uM were added to each well of a 96-well plate. The plate was incubated at room temperature for 0.5 h, and then, the ADP Hunter Plus reagents were added. The plate was further incubated for 0.5 h and then read for fluorescence (ex.530/em.590) on Synergy 4 (BioTek, Winooski, VT, USA).

IC50	Structure (SMILES)
118 µM	Cc1ccc(C2C(C#N)=C(N)Nc3ncnn32)cc1 (stereo not drawn) [SRI35564]
78.9 µM	FC(F)(F)c1ccc(Nc2ncnc3[nH]ncc23)cc1 [SRI35565]
65 µM	O=C1CC(c2ccccc2)c2c(n3ncnc3[nH]c2=O)N1 (stereo not drawn) [SRI35566]
